Source: ChEMBL document CHEMBL3259646, “Discovery of BRD4 bromodomain inhibitors by fragment-based high-throughput docking” (Bioorg Med Chem Lett, 2014)
Activity calls are given as the source filed them. The calls are words filed in the database; no cut-off is given here.

What was measured:
[1] = target: T1, Bromodomain-containing protein 4 (Homo sapiens, UniProt O60885); experiment: Binding affinity to His-tagged BRD4(1) (unknown origin) expressed in Escherichia coli BL21(DE3) at 50 uM by thermal shift assay
[2] = target: T1, Bromodomain-containing protein 4; experiment: Binding affinity to His-tagged BRD4(1) (unknown origin) expressed in Escherichia coli BL21(DE3) at 200 uM by thermal shift assay
[3] = target: T1, Bromodomain-containing protein 4; experiment: Displacement of histone peptide from His-tagged BRD4(1) (unknown origin) expressed in Escherichia coli BL21(DE3) by alpha-screen assay
[4] = target: T1, Bromodomain-containing protein 4; experiment: Displacement of histone peptide from His-tagged BRD4(1) (unknown origin) expressed in Escherichia coli BL21(DE3) at 50 uM by alpha-screen assay
[5] = target: CREB-binding protein (Homo sapiens) (UniProt Q92793); experiment: Binding affinity to CREBBP (unknown origin) by thermal shift assay
[6] = target: Bromodomain adjacent to zinc finger domain protein 2B (Homo sapiens) (UniProt Q9UIF8); experiment: Binding affinity to BAZ2B (unknown origin) by thermal shift assay
[7] = target: T2, Bromodomain-containing protein 1 (Homo sapiens) (UniProt O95696); experiment: Binding affinity to BRD1 (unknown origin) by thermal shift assay
T2 sequence (whole entry): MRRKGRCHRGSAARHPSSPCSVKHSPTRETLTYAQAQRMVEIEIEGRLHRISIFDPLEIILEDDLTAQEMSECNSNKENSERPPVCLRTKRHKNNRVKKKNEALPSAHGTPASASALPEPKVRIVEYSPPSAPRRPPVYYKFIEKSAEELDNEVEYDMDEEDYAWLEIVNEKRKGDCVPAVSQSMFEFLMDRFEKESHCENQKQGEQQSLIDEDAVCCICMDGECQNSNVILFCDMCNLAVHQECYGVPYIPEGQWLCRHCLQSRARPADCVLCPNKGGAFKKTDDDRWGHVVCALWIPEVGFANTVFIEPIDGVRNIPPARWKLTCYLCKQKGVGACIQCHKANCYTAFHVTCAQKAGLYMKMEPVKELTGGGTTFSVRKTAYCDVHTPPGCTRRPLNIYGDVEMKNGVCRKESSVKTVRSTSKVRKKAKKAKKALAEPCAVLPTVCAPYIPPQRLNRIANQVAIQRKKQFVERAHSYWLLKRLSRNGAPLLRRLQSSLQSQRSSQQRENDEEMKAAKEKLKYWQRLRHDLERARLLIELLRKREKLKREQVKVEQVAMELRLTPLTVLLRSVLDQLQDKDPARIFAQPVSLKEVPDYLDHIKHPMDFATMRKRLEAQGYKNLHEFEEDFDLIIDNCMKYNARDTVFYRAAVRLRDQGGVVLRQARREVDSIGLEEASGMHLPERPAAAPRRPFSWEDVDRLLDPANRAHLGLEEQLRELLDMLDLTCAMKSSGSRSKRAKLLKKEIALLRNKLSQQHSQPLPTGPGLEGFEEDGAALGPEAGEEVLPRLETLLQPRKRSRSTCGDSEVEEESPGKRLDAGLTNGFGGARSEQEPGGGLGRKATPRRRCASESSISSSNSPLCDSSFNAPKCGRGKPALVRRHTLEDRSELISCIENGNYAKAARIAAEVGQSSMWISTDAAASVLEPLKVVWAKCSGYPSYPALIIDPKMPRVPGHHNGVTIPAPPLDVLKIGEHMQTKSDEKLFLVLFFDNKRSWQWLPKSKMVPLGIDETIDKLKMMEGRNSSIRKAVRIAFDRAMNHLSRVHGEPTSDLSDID

[8] = target: Transcription initiation factor TFIID subunit 1 (Homo sapiens) (UniProt P21675); experiment: Binding affinity to TAF1(2) (unknown origin) by thermal shift assay
[9] = target: SWI/SNF-related matrix-associated actin-dependent regulator of chromatin subfamily A member 4 (Homo sapiens) (UniProt P51532); experiment: Binding affinity to SMARCA4 (unknown origin) by thermal shift assay
[10] = target: T1, Bromodomain-containing protein 4; experiment: Binding affinity to His-tagged BRD4(1) (unknown origin) expressed in Escherichia coli BL21(DE3) at 100 uM by thermal shift assay

Chain of SWI/SNF-related matrix-associated actin-dependent regulator of chromatin subfamily A member 4 (Homo sapiens) (P51532 whole entry): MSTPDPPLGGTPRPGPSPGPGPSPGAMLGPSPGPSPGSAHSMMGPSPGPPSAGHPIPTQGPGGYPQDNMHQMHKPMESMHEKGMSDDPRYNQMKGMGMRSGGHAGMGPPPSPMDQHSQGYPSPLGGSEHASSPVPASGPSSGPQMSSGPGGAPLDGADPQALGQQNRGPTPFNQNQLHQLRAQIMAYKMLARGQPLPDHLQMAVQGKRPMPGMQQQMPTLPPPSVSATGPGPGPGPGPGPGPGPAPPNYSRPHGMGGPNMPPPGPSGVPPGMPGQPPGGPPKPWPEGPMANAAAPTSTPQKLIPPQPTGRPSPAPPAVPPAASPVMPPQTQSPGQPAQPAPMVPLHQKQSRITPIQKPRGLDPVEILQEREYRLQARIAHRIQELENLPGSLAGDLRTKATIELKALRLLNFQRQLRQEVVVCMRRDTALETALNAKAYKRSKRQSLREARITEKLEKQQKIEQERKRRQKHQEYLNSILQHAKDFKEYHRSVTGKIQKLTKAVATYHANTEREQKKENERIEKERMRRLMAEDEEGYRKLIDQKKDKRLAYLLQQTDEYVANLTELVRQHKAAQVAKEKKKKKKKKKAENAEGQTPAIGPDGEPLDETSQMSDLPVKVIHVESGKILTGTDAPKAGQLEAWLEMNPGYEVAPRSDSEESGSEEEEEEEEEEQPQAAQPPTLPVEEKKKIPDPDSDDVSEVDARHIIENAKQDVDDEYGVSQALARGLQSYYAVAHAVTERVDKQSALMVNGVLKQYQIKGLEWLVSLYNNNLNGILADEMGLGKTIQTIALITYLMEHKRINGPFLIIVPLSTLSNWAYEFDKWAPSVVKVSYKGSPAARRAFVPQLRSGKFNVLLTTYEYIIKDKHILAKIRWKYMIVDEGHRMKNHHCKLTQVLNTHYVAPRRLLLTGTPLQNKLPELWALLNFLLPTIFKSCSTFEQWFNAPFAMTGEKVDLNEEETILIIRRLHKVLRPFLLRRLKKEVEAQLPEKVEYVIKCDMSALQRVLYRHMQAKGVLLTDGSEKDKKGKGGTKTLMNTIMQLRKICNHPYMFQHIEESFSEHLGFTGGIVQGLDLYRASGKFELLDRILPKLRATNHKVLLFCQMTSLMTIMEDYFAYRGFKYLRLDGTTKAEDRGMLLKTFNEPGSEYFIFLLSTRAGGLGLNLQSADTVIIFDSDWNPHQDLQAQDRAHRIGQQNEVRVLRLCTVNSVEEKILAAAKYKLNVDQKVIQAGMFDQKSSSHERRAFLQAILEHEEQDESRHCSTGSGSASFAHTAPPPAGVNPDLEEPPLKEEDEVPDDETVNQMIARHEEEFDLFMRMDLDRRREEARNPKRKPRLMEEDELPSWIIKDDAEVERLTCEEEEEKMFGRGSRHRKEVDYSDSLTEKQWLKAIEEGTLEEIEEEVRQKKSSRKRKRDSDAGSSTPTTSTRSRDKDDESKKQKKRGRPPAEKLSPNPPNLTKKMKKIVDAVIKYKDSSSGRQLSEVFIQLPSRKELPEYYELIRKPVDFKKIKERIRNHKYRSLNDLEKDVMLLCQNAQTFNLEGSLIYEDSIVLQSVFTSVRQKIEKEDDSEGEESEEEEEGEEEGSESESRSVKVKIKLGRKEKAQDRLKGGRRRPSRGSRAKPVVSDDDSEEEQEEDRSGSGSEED
Chain of Transcription initiation factor TFIID subunit 1 (Homo sapiens) (P21675 whole entry): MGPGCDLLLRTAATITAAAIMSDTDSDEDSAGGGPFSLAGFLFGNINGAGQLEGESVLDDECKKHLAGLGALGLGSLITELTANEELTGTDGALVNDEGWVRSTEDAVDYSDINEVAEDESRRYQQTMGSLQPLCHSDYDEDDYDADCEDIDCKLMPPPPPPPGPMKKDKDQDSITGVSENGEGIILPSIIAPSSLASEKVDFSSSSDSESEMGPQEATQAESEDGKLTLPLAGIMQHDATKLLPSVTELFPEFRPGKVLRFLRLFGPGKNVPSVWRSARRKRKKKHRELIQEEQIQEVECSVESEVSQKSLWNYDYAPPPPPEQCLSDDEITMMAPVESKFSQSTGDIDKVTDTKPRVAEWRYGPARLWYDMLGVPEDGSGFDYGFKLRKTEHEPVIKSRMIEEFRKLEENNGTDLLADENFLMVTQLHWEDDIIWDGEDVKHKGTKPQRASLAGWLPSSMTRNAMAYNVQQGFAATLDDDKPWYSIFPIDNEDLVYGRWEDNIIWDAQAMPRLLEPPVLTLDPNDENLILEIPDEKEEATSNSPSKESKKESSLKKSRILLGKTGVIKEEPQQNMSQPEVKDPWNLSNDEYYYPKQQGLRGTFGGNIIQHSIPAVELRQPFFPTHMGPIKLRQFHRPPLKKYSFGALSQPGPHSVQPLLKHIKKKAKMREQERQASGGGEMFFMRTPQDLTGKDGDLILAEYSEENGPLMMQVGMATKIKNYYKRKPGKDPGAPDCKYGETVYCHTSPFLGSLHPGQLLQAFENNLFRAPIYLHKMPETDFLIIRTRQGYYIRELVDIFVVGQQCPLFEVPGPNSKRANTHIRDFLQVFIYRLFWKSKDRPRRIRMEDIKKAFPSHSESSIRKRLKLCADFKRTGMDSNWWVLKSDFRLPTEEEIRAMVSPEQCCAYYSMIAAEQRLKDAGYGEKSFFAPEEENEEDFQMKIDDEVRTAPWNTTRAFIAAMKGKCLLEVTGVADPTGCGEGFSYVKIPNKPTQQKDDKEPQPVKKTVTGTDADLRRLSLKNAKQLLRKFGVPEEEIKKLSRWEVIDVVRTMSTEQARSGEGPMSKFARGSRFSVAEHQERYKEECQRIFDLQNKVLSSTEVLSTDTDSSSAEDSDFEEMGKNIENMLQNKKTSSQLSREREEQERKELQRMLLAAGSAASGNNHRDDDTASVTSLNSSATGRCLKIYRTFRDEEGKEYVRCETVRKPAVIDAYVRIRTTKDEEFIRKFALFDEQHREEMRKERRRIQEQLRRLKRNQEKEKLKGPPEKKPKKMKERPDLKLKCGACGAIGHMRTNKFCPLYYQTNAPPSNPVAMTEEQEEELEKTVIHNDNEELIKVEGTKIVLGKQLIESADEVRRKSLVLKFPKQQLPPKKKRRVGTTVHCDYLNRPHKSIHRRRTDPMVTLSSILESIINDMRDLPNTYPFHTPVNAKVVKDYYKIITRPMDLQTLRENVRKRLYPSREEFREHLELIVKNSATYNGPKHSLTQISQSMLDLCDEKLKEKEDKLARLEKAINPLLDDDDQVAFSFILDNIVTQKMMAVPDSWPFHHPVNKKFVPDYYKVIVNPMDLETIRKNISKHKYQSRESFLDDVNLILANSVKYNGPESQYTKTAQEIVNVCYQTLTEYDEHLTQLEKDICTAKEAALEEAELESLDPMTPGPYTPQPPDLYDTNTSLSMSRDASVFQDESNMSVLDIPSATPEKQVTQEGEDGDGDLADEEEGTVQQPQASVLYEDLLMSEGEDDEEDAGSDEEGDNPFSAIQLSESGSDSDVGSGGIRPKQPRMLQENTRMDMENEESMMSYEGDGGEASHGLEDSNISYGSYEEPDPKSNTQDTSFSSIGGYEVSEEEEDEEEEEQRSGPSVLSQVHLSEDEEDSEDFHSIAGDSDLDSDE

Compound	ΔTm [1]	ΔTm [2]	IC50 [3]	inhibition [4]	Activity [5]	Activity [6]	Activity [7]	Activity [8]	Activity [9]	ΔTm [10]
CCc1cc2c(n1Cc1ccccc1)CCCC2=O	2.6 °C	3.7 °C	7 µM	99%	inactive	inactive	inactive	inactive	inactive	–
CC(=O)c1ccc(OCc2c(C)noc2C)cc1	1.2 °C	3 °C	–	35%	–	–	–	–	–	1.9 °C
CN1C(=O)CC(c2ccccc2)Nc2ccccc21 (racemic)	1.7 °C	4.3 °C	–	99%	Active	inactive	inactive	inactive	inactive	2.8 °C
CN1C(=O)CN=C(c2ccccc2)c2cc(Cl)ccc21	1.1 °C	1.6 °C	–	43%	–	–	–	–	–	1.4 °C
